# According to patent US9512111B2, “N-sulfonylated tetrahydroquinolines and related bicyclic compounds for inhibition of RORγ activity and the treatment of disease” (Lycera Corporation, priority 2010, dated 2016):
# Target: T1, RORγ-LBD (Homo sapiens, UniProt P51449)
# T1 construct: HIS-tagged RORγ-LBD was recombinantly expressed in SF9 cells; made in house; host or cells: SF9 cells (baculovirus); unpurified lysate
# T1 sequence (P51449 269-508 limits assumed): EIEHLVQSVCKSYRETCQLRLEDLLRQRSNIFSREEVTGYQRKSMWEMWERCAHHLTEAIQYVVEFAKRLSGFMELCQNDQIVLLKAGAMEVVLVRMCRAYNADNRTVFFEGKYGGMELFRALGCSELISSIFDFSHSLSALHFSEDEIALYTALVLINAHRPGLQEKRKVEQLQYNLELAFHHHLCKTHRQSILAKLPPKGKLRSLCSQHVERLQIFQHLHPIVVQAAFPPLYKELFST
# Test: RORγ-Ligand Binding Domain TR-FRET Assay
# Assay type: biochemical
# Settings: Table 8, indazoles
# How it was run: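 Unpurified His-tagged LBD in Sf9 lysate (~10 nM final) in 25 mM HEPES pH 7.0, 100 mM NaCl, 0.01% Tween, 0.1% BSA, with biotinylated SRC1-2 LXXLL peptide (450 nM), Eu anti-His (2 nM) and streptavidin-APC (60 nM). Incubated 4 h to overnight; IC50 from 665/615 nm TR-FRET ratio.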
row,Compound,IC50 [µM]
1,COC(=O)c1cc(S(=O)(=O)n2ncc3ccc(NC(=O)c4c(F)cccc4Cl)cc32)oc1C [Compound V-150],< 15
2,COC(=O)c1ccc(S(=O)(=O)n2ncc3ccc(NC(=O)c4c(F)cccc4Cl)cc32)o1 [Compound V-151],< 15
3,Cc1ccccc1S(=O)(=O)n1ncc2ccc(NC(=O)c3c(F)cccc3Cl)cc21 [Compound V-129],< 15
4,O=C(Nc1ccc2cnn(S(=O)(=O)Cc3cc(C(F)(F)F)cc(C(F)(F)F)c3)c2c1)c1c(F)cccc1Cl [Compound V-93],< 15
5,N#Cc1cccc(S(=O)(=O)n2ncc3ccc(NC(=O)c4c(F)cccc4Cl)cc32)c1 [Compound V-121],< 15
6,COc1ccc(S(=O)(=O)n2ncc3ccc(NC(=O)c4c(F)cccc4Cl)cc32)cn1 [Compound V-162],< 15
7,O=C(Nc1ccc2cnn(S(=O)(=O)Cc3ccc(C(F)(F)F)cc3)c2c1)c1c(F)cccc1Cl [Compound V-140],< 15
8,O=C(Nc1ccc2cnn(S(=O)(=O)c3ccc(F)c(C(F)(F)F)c3)c2c1)c1c(Cl)cccc1Cl [Compound V-66],< 15
9,O=C(Nc1ccc2cnn(S(=O)(=O)Cc3ccc(Cl)c(Cl)c3)c2c1)c1c(F)cccc1Cl [Compound V-139],< 15
10,Cc1cccc(S(=O)(=O)n2ncc3ccc(NC(=O)Cc4ccc(Cl)cc4)cc32)c1 [Compound V-31],< 15
11,N#Cc1nn(S(=O)(=O)c2cccc(C(F)(F)F)c2)c2cc(NC(=O)c3c(F)cccc3Cl)ccc12 [Compound V-9],< 15
12,O=C(Nc1ccc2cnn(S(=O)(=O)c3ccc(F)c(C(F)(F)F)c3)c2c1)c1c(F)cccc1Cl [Compound V-81],< 15
13,CC(C)(C)c1cccc(S(=O)(=O)n2ncc3ccc(NC(=O)Cc4ccc(Cl)cc4)cc32)c1 [Compound V-28],< 15
14,O=C(Nc1ccc2cnn(S(=O)(=O)c3ccc(Cl)c(F)c3)c2c1)c1c(F)cccc1Cl [Compound V-80],< 15
15,CC(=O)c1cccc(S(=O)(=O)n2ncc3ccc(NC(=O)Cc4cc(F)cc(F)c4)cc32)c1 [Compound V-15],< 15

# Same assay, conditions: benzoxazines, Table 9
row,Compound,IC50 [µM]
1,C[C@H]1CN(S(=O)(=O)c2ccc(F)cc2)c2cc(NC(=O)[C@H](C)c3ccccc3)ccc2O1 [VI-134],< 15
2,O=C(Cc1ccc(Cl)cc1)Nc1ccc2c(c1)N(S(=O)(=O)c1ccc(F)cc1)C[C@H](CO)O2 [VI-77],< 15
3,"O=C(Nc1ccc2c(c1)N(S(=O)(=O)c1ccc(F)cc1)C(CO)CO2)c1c(F)cccc1Cl (stereo not shown) [Compound 23, 2-Chloro-6-fluoro-N-[4-(4-fluorobenzenesulfonyl)-3-hydroxymethyl-3,4-dihydro-2H-benzo[1,5]oxazin-6-yl]benzamide]",< 15
4,N#Cc1cccc(S(=O)(=O)N2C[C@@H](CO)Oc3ccc(NC(=O)Cc4ccc(Cl)cc4)cc32)c1 [VI-56],< 15
5,O=C(Nc1ccc2c(c1)N(S(=O)(=O)c1ccc(Cl)cc1)C[C@@H](CO)O2)c1c(F)cccc1Cl [VI-54],< 15
6,O=C(Cc1ccc(F)cc1)Nc1ccc2c(c1)N(S(=O)(=O)c1ccc(Cl)cc1)C[C@@H](CO)O2 [VI-53],< 15
7,"O=C(Nc1ccc2c(c1)N(S(=O)(=O)c1ccc(F)cc1)C[C@H](CO)O2)c1c(F)cccc1Cl [Compound 18, (R)-2-Chloro-6-fluoro-N-(4-((4-fluorophenyl)sulfonyl)-2-(hydroxymethyl)-3,4-dihydro-2H-benzo[b][1,4]oxazin-6-yl)benzamide]",> 15
8,"N#CC[C@H]1CN(S(=O)(=O)c2ccc(F)cc2)c2cc(NC(=O)c3c(F)cccc3Cl)ccc2O1 [Compound 19, (S)-2-Chloro-N-(2-(cyanomethyl)-4-((4-fluorophenyl)sulfonyl)-3,4-dihydro-2H-benzo[b][1,4]oxazin-6-yl)-6-fluorobenzamide]",< 15
9,CCCNCC1CN(S(=O)(=O)c2ccc(F)cc2)c2cc(NC(=O)c3c(F)cccc3Cl)ccc2O1 (stereo not shown) [VI-33],< 15
10,C[C@H]1CN(S(=O)(=O)c2cccc(C#N)c2)c2cc(NC(=O)c3c(F)cccc3C(F)(F)F)ccc2O1 [VI-4],< 15
